The results in this text go back to patent US8633206B2, “Pyrrolo[2,3-D]pyrimidine compounds” (Pfizer Inc., priority 2009, dated 2014).

Each structure is given as a SMILES string.

Common to all, as to assay type: biochemical
For experiment [1], the target named is JAK2 (Homo sapiens (Human), UniProt O60674). Briefly: JAK enzymatic assay (peptide mobility shift), JAK2. The following applies: recombinant JAK2 2 nM, JAKtide peptide, 150 minutes.
Experiment [2] addresses JAK3 (Homo sapiens (Human), UniProt P52333). Briefly: JAK enzymatic assay (peptide mobility shift), JAK3. Conditions: recombinant JAK3 1 nM, JAKtide peptide, 90 minutes.
The target of experiment [3] is JAK1 (Homo sapiens (Human), UniProt P23458). The experiment is described as follows: JAK enzymatic assay (peptide mobility shift), JAK1. The following applies: recombinant JAK1 20 nM, IRS-1 peptide, 240 minutes.
Sequence of JAK1 (P23458 whole entry): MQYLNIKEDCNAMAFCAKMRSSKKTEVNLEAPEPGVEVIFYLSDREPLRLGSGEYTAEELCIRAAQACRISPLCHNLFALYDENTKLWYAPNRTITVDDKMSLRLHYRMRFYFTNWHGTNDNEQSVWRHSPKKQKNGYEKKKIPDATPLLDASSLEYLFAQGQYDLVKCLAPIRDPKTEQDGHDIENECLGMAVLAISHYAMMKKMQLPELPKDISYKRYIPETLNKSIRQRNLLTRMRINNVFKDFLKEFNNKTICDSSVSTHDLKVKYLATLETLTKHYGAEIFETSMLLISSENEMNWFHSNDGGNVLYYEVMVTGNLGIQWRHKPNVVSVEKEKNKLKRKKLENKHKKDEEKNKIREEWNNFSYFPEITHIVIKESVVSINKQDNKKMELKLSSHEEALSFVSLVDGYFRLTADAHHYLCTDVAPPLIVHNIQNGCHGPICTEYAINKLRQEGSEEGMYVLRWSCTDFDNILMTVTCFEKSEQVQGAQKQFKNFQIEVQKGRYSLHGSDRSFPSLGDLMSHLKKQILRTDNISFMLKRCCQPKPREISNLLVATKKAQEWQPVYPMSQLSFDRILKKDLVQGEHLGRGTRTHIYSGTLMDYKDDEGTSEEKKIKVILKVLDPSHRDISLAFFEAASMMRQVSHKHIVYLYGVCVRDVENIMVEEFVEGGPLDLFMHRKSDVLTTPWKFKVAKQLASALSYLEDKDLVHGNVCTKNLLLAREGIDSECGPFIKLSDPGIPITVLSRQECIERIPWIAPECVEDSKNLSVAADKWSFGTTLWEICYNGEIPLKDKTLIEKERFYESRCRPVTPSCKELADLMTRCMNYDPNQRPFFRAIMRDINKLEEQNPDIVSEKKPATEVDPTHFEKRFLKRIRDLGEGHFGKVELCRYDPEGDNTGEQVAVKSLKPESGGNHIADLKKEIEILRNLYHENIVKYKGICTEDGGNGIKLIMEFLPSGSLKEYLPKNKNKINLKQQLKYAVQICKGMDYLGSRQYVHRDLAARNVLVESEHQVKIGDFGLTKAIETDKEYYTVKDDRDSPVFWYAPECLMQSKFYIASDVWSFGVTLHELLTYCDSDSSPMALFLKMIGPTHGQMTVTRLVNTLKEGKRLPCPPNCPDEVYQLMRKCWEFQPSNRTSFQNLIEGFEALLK

Sequence of JAK2 (O60674 808-1132): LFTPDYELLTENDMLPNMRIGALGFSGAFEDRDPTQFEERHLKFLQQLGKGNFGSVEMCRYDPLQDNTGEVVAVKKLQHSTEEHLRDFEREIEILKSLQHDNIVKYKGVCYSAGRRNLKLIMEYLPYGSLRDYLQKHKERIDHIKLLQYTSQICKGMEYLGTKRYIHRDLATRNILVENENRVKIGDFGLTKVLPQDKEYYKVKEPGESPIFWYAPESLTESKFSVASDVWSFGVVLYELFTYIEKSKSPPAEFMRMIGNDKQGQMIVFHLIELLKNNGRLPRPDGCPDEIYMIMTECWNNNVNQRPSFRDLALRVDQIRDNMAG
Sequence of JAK3 (P52333 781-1124): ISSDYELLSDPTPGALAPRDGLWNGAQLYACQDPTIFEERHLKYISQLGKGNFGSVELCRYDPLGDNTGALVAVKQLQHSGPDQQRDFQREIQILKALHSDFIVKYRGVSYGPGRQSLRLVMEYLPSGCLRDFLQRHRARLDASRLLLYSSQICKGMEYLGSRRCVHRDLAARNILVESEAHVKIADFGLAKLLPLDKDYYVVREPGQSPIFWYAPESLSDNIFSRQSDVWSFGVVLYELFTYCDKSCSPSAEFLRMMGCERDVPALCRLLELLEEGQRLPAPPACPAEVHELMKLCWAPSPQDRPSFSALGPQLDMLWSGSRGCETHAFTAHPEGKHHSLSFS

As for `CN(c1ncnc2[nH]ccc12)[C@H]1CC[C@H](CS(=O)(=O)N2CCC(C#N)CC2)CC1` [Example 42, 1-[({trans-4-[methyl(7H-pyrrolo[2,3-d]pyrimidin-4-yl)amino]cyclohexyl}-methyl)sulfonyl]piperidine-4-carbonitrile], the IC50 (in general, the midpoint of a concentration-inhibition curve) in experiment [1] stood at 66.9 nM; in experiment [2] it was 431 nM; in experiment [3], 16.5 nM.
`COCC1CCN(S(=O)(=O)C[C@H]2CC[C@H](N(C)c3ncnc4[nH]ccc34)CC2)CC1` [Example 43, N-[trans-4-({[4-(methoxy-methyl)piperidin-1-yl]-sulfonyl}methyl)-cyclohexyl]-N-methyl-7H-pyrrolo[2,3-d]pyrimidin-4-amine]: the IC50 in experiment [1] is 71 nM; in experiment [2] it was 434 nM; in experiment [3], 12.8 nM.
The like results for `CCC1(C(N)=O)CCN(S(=O)(=O)C[C@H]2CC[C@H](N(C)c3ncnc4[nH]ccc34)CC2)CC1` [Example 44, 4-ethyl-1-[({trans-4-[methyl(7H-pyrrolo[2,3-d]-pyrimidin-4-yl)amino]-cyclohexyl}methyl)sulfonyl] piperidine-4-carboxarnide] were, in that order, 61.1 nM, 353 nM and 8.01 nM.
The like results for `COCCC1(C(N)=O)CCN(S(=O)(=O)C[C@H]2CC[C@H](N(C)c3ncnc4[nH]ccc34)CC2)CC1` [Example 45, 4-(2-methoxyethyl)-1-[({trans-4-[methyl(7H-pyrrolo[2,3-d]pyrimidin-4-yl)amino]cyclohexyl}-methyl)sulfonyl]piperidine-4-carboxamide] were, in that order, 8.97 nM, 39.6 nM and 1.59 nM.
The like results for `CN(c1ncnc2[nH]ccc12)[C@H]1CC[C@H](CS(=O)(=O)N2CCC(Cc3ncccn3)CC2)CC1` [Example 46, N-methyl-N-[trans-4-({[4-(pyrimidin-2-ylmethyl)-piperidin-1-yl]sulfonyl}-methyl)cyclohexyl]-7H-pyrrolo[2,3-d]pyrimidin-4-amine] were, in that order, 17.7 nM, 167 nM and 5.98 nM.
As to `CN(c1ncnc2[nH]ccc12)[C@H]1CC[C@H](CS(=O)(=O)N2CCC(C(C)(C)O)CC2)CC1` [Example 47, 2-{1-[({trans-4-[methyl(7H-pyrrolo[2,3-d]pyrimidin-4-yl)amino]cyclohexyl}methyl)-sulfonyl]piperidin-4-yl}propan-2-ol], the 50% inhibitory concentration (IC50) in experiment [1] stood at 68.4 nM; in experiment [2] it was 397 nM; in experiment [3], 13.5 nM.
The like results for `Cc1ccc(CC2CCN(S(=O)(=O)C[C@H]3CC[C@H](N(C)c4ncnc5[nH]ccc45)CC3)CC2)nn1` [Example 48, N-methyl-N-{trans-4-[({4-[(6-methylpyridazin-3-yl)methyl]piperidin-1-yl}sulfonyl)methyl]cyclo-hexyl}-7H-pyrrolo[2,3-d]-pyrimidin-4-amine] were, in that order, 84.9 nM, 753 nM and 22.7 nM.
As for `CN(c1ncnc2[nH]ccc12)[C@H]1CC[C@H](CS(=O)(=O)N2CCC(c3nc(CS(C)(=O)=O)no3)CC2)CC1` [Example 50, N-methyl-N-(trans-4-{[(4-{3-[(methylsulfonyl)-methyl]-1,2,4-oxadiazol-5-yl}piperidin-1-yl)sulfonyl]-methyl)cyclohexyl)-7H-pyrrolo[2,3-d]pyrimidin-4-amine], the IC50 in experiment [1] was 65.8 nM; in experiment [2], 581 nM; in experiment [3], 8.33 nM.
The like results for `CC1CCN(S(=O)(=O)C[C@H]2CC[C@H](N(C)c3ncnc4[nH]ccc34)CC2)CC1` [Example 51, N-methyl-N-(trans-4-{[(4-methylpiperidin-1-yl)sulfonyl]-methyl}cyclohexyl)-7H-pyrrolo[2,3-d]pyrimidin-4-amine] were, in that order, 85.1 nM, 781 nM and 16.4 nM.
Consider `CCN(CC)C(=O)C1CCN(S(=O)(=O)C[C@H]2CC[C@H](N(C)c3ncnc4[nH]ccc34)CC2)CC1` [Example 52, N,N-diethyl-1-[({trans-4-[methyl(7H-pyrrolo[2,3-d]-pyrimidin-4-yl)amino]-cyclohexyl}methyl)sulfonyl] piperidine-4-carboxamide], for which the half-maximal inhibitory concentration (IC50) is 115 nM in experiment [1], 1240 nM in experiment [2] and 22.6 nM in experiment [3].
The like results for `CNC(=O)C1CCN(S(=O)(=O)C[C@H]2CC[C@H](N(C)c3ncnc4[nH]ccc34)CC2)CC1` [Example 54, N-methyl-1-[({trans-4-[methyl(7H-pyrrolo[2,3-d]-pyrimidin-4-yl)amino]-cyclohexyl}methyl)sulfonyl] piperidine-4-carboxamide] were, in that order, 44.9 nM, 377 nM and 22 nM.
For `CN(c1ncnc2[nH]ccc12)[C@H]1CC[C@H](CS(=O)(=O)N2CCC(CC(N)=O)CC2)CC1` [Example 55, 2-{1-[({trans-4-[methyl(7H-pyrrolo[2,3-d]pyrimidin-4-yl)amino]cyclohexyl}-methyl)sulfonyl]piperidin-4-yl}-acetamide], in that order: 84.8 nM, 681 nM and 20.1 nM.
Consider `CN(c1ncnc2[nH]ccc12)[C@H]1CC[C@H](CS(=O)(=O)N2CCC(COCC3CC3)CC2)CC1` [Example 56, N-{trans-4-[({4-[(cyclopropyl-methoxy)-methyl]piperidin-1-yl}-sulfonyl)-methyl]-cyclohexyl}-N-methyl-7H-pyrrolo[2,3-d]-pyrimidin-4-amine], for which the IC50 in experiment [1] came to 59.8 nM; in experiment [2], 170 nM; in experiment [3], 4.07 nM.
As for `CN(C)S(=O)(=O)C[C@H]1CCCN(S(=O)(=O)C[C@H]2CC[C@H](N(C)c3ncnc4[nH]ccc34)CC2)C1` [Example 57, N,N-dimethyl-1-{1-[({trans-4-[methyl(7H-pyrrolo[2,3-d]pyrimidin-4-yl)amino]-cyclohexyl}methyl)sulfonyl]piperidin-3-yl}-methanesulfonamide], the IC50 in experiment [1] was 50.8 nM; in experiment [2], 453 nM; in experiment [3], 7.7 nM.
For `CN(c1ncnc2[nH]ccc12)[C@H]1CC[C@H](CS(=O)(=O)N2CCC[C@H](O)C2)CC1` [Example 58, 1-[({trans-4-[methyl(7H-pyrrolo[2,3-d]pyrimidin-4-yl)-amino]cyclohexyl}-methyl)sulfonyl]piperidin-3-ol], in that order: 18 nM, 175 nM and 3.2 nM.
For `CO[C@@H]1CCCN(S(=O)(=O)C[C@H]2CC[C@H](N(C)c3ncnc4[nH]ccc34)CC2)C1` [Example 60, N-(trans-4-{[(3-methoxy-piperidin-1-yl)sulfonyl]-methyl}cyclohexyl)-N-methyl-7H-pyrrolo[2,3-d]-pyrimidin-4-amine], in that order: 23.7 nM, 203 nM and 1.7 nM.
With `C[C@H]1CCCN(S(=O)(=O)C[C@H]2CC[C@H](N(C)c3ncnc4[nH]ccc34)CC2)C1` [Example 61, N-methyl-N-(trans-4-{[(3-methylpiperidin-1-yl)sulfonyl]methyl}cyclo-hexyl)-7H-pyrrolo[2,3-d]-pyrimidin-4-amine], the results for the IC50 in experiment [1], in experiment [2] and in experiment [3] were 72.2 nM, 851 nM and 10.8 nM, respectively.
Consider `CN(c1ncnc2[nH]ccc12)[C@H]1CC[C@H](CS(=O)(=O)N2CCC[C@H](CO)C2)CC1` [Example 62, {1-[({trans-4-[methyl(7H-pyrrolo[2,3-d]pyrimidin-4-yl)amino]cyclohexyl}-methyl)sulfonyl]piperidin-3-yl}methanol], for which the IC50 in experiment [1] turned out to be 20.1 nM; in experiment [2] it was 233 nM; in experiment [3] it was 2.4 nM.
For `CN(c1ncnc2[nH]ccc12)[C@H]1CC[C@H](CS(=O)(=O)N2CCC[C@@](C)(CO)C2)CC1` [Example 63, {3-methyl-1-[({trans-4-[methyl(7H-pyrrolo[2,3-d]-pyrimidin-4-yl)amino]-cyclohexyl}methyl)sulfonyl]piperidin-3-yl}methanol], in that order: 50.7 nM, 554 nM and 8.88 nM.
For `CN(c1ncnc2[nH]ccc12)[C@H]1CC[C@H](CS(=O)(=O)N2CCC[C@H](C#N)C2)CC1` [Example 64, 1-[({trans-4-[methyl(7H-pyrrolo[2,3-d]pyrimidin-4-yl)amino]cyclohexyl}-methyl)sulfonyl]piperidine-3-carbonitrile], in that order: 32.1 nM, 263 nM and 2.71 nM.
With `CN(c1ncnc2[nH]ccc12)[C@H]1CC[C@H](CS(=O)(=O)N2CCC[C@@](C)(O)C2)CC1` [Example 65, 3-methyl-1-[({trans-4-[methyl(7H-pyrrolo[2,3-d]-pyrimidin-4-yl)amino]-cyclohexyl}methyl)sulfonyl] piperidin-3-ol], the concentration for half-maximal inhibition (IC50) in experiment [1] stood at 40.9 nM; in experiment [2] it was 431 nM; in experiment [3], 7.6 nM.
The like results for `CN(c1ncnc2[nH]ccc12)[C@H]1CC[C@H](CS(=O)(=O)N2CCC[C@H](CS(N)(=O)=O)C2)CC1` [Example 66, 1-{1-[({trans-4-[methyl(7H-pyrrolo[2,3-d]pyrimidin-4-yl)amino]cyclohexyl}-methyl)sulfonyl]piperidin-3-yl}-methanesulfonamide] were, in that order, 22 nM, 128 nM and 3.1 nM.
`CN(c1ncnc2[nH]ccc12)[C@H]1CC[C@H](CS(=O)(=O)N2CCC[C@H](CS(C)(=O)=O)C2)CC1` [Example 67, N-methyl-N-{trans-4-[({3-[(methylsulfonyl)methyl]-piperidin-1-yl}sulfonyl)-methyl]cyclohexyl}-7H-pyrrolo[2,3-d]pyrimidin-4-amine]: the IC50 in experiment [1] came out at 92.2 nM; in experiment [2] it was 573 nM; in experiment [3], 20.6 nM.
